Test: xn = mol fraction of the nth substance listed

CCCCCCCCCC[N+](C)(C)C.[Br-] + O
298.15 K, 101 kPa
Conditions	viscosity [mPa·s]
x1 = 9.063e-05	0.9026
x1 = 0.0001809	0.9052
x1 = 0.0002674	0.9071
x1 = 0.0003644	0.9089
x1 = 0.0004939	0.9162
x1 = 0.000699	0.9255
x1 = 0.0009049	0.9331
x1 = 0.00108	0.939
x1 = 0.001236	0.9459
x1 = 0.001415	0.9542
x1 = 0.001504	0.9589
x1 = 0.001656	0.9675
x1 = 0.001835	0.9775

O=S(=O)([N-]S(=O)(=O)C(F)(F)F)C(F)(F)F.[Cs+] + O=S(=O)([N-]S(=O)(=O)C(F)(F)F)C(F)(F)F.[Li+]
100 kPa, frequency 1 MHz, x2 = 0.07
Conditions	electrical conductivity [S/m]
403.1 K	0.673
413.1 K	0.898
423.5 K	1.16
432.7 K	1.44
442.1 K	1.77
452.2 K	2.12
462.6 K	2.52
473.6 K	2.94
482.8 K	3.37
492 K	3.86
502.1 K	4.33
512.5 K	4.85
523.1 K	5.37
531.3 K	5.9
542.9 K	6.41
551.8 K	7
560.9 K	7.52
571.1 K	8.14

100 kPa, x2 = 0.07
Conditions	viscosity [mPa·s]
403.2 K	97
413.2 K	69.8
423.7 K	51.5
432.9 K	39.2
442.5 K	27.9
452.5 K	23
463 K	18.9
473.9 K	15.8
483.1 K	13.1
492.6 K	11.1
502.5 K	9.71
512.8 K	8.54
523.6 K	7.41
531.9 K	6.64
543.5 K	6.03
552.5 K	5.39
561.8 K	5.01

OCCO + CCCC[n+]1ccn(C)c1.O=S(=O)([N-]S(=O)(=O)C(F)(F)F)C(F)(F)F
100 kPa
Conditions	viscosity [mPa·s]
293.15 K, x2 = 0.2002	34.4
293.15 K, x2 = 0.4015	41.6
298.15 K, x2 = 0.2002	27.2
308.15 K, x2 = 0.2997	18.6
308.15 K, x2 = 0.7003	21.8
313.15 K, x2 = 0.2997	15.6
318.15 K, x2 = 0.2997	13.3
318.15 K, x2 = 0.7003	15.6
323.15 K, x2 = 0.2997	11.5
323.15 K, x2 = 0.7993	14.8
323.15 K, x2 = 0.9	17
328.15 K, x2 = 0.4015	10.4
328.15 K, x2 = 0.6007	11.3
328.15 K, x2 = 0.9	14.7
333.15 K, x2 = 0.2002	8.11
333.15 K, x2 = 0.7993	11.3
338.15 K, x2 = 0.7993	10

CS(=O)(=O)[O-].C[N+](C)(CCO)CCO + CC(C)O
viscosity [mPa·s], 101 kPa
Conditions	x1 = 0.0998	x1 = 0.2001	x1 = 0.3002	x1 = 0.4004	x1 = 0.4982	x1 = 0.5999	x1 = 0.6997	x1 = 0.7978	x1 = 0.8994	x1 = 1
298.15 K	5.62	13.5	30.1	61	123	227	385	628	1025	1495
303.15 K	4.78	11.45	24.1	47.7	86.7	168	281	445	712	1021
308.15 K	4.13	9.67	19.7	38	67.4	128.7	210	324	507	716
313.15 K	3.6	8.13	16.3	30.7	53.4	89.6	159	243	370	513
318.15 K	3.36	6.96	13.7	25.2	43	70.7	123.6	186	278	378
323.15 K	2.83	6.02	11.86	21	35.1	56.7	87	143.8	211	282

O=S(=O)([N-]S(=O)(=O)C(F)(F)F)C(F)(F)F.[Li+] + C1COCO1
298.15 K, 100 kPa
Conditions	electrical conductivity [S/m]	viscosity [mPa·s]
x1 = 8e-07	1.3e-05	–
x1 = 3.74e-06	3.1e-05	–
x1 = 8.82e-06	5e-05	0.58
x1 = 1.615e-05	6.8e-05	0.582
x1 = 2.378e-05	8.1e-05	0.583
x1 = 3.941e-05	0.000103	0.584
x1 = 8.444e-05	0.000138	0.585
x1 = 0.0001607	0.0002	0.588
x1 = 0.0004162	0.000398	0.589
x1 = 0.0007624	0.000536	0.591
x1 = 0.001538	0.000978	0.595
x1 = 0.002969	0.00173	0.608
x1 = 0.004513	0.00309	0.629
x1 = 0.005877	0.00459	0.633
x1 = 0.007354	0.00664	0.637
x1 = 0.01099	0.0164	0.661
x1 = 0.0146	0.0294	0.683
x1 = 0.02174	0.0659	0.758
x1 = 0.03572	0.169	0.905
x1 = 0.06897	0.446	1.388
x1 = 0.08475	0.563	1.684
x1 = 0.1	0.643	2.11
x1 = 0.1285	0.738	3.122
x1 = 0.1563	0.744	4.4
x1 = 0.1818	0.69	6.52
x1 = 0.2054	0.606	9.99
x1 = 0.2273	0.512	13.96
x1 = 0.2467	0.431	20.04
x1 = 0.2703	0.337	30.3

[N-]=C=S.[NH4+] + CC[n+]1ccn(C)c1.N#C[S-]
100 kPa
Conditions	electrical conductivity [S/m]	viscosity [mPa·s]
313.15 K, x1 = 0.039	3.12	16.11
318.15 K, x1 = 0.039	–	14.28
318.15 K, x1 = 0.1395	3.28	16.71
323.15 K, x1 = 0.1395	3.71	14.61
328.15 K, x1 = 0.039	–	11.19
333.15 K, x1 = 0.099	–	10.92
343.15 K, x1 = 0.1395	–	9.2
348.15 K, x1 = 0.099	–	8.08
353.15 K, x1 = 0.099	–	7.28
353.15 K, x1 = 0.1395	–	7.48
